# Results from patent EP0908457B1, “3-(1,2-benzisothiazol- and isoxazol-5-Y1)-2,4(1H,3H)-pyrimidinedione or thione and 3-(1,2-benzisothiazol- and isoxazol-5-y1)-4(3H)-pyrimidinone or thione herbicidal agents” (BASF AKTIENGESELLSCHAFT, priority 1997, dated 1999).
# Tests used:
# [1] = system: Oryza sativa, (L.) Tebonnet; test: Rice tolerance to post-transplant applications under flooded paddy conditions (Example 187), ORYSAT (Rice, Tebonnet); conditions: rated three to four weeks after treatment
# [2] = system: Echinochloa oryzoides (Ard.) Fritsch.; test: Preemergence weed control under flooded paddy conditions, ECHORC (Watergrass (Calif.)); type: in vivo; conditions: preemergence, flooded paddy, rated three to four weeks after treatment; on herbicidal effect rating, ECHORC: meaning of each grade not given here
# Cyperus iria = test: Preemergence weed control under flooded paddy conditions, CYPIR (Rice Flatsedge); type: in vivo; conditions: preemergence, flooded paddy, rated three to four weeks after treatment
# [3] = system: Monochoria vaginalis, Presl.; test: Preemergence weed control under flooded paddy conditions, MOOVA (Monochoria); type: in vivo; conditions: preemergence, flooded paddy, rated three to four weeks after treatment
# Sagittaria pygmaea, L. = test: Preemergence weed control under flooded paddy conditions, SAGPY (Arrowhead (Pygmaea)); type: in vivo; conditions: preemergence, flooded paddy, rated three to four weeks after treatment
SMILES,ORYSAT herbicidal effect rating ([1]; Rate 0.0320 kg/ha),ORYSAT herbicidal effect rating ([1]; Rate 0.0620 kg/ha),ORYSAT herbicidal effect rating ([1]; Rate 0.1250 kg/ha),ORYSAT herbicidal effect rating ([1]; Rate 0.2500 kg/ha),ECHORC herbicidal effect rating ([2]; Rate 0.0320 kg/ha),ECHORC herbicidal effect rating ([2]; Rate 0.0620 kg/ha),ECHORC herbicidal effect rating ([2]; Rate 0.1250 kg/ha),ECHORC herbicidal effect rating ([2]; Rate 0.2500 kg/ha),CYPIR herbicidal effect rating (Cyperus iria; Rate 0.0320 kg/ha),CYPIR herbicidal effect rating (Cyperus iria; Rate 0.0620 kg/ha),CYPIR herbicidal effect rating (Cyperus iria; Rate 0.1250 kg/ha),CYPIR herbicidal effect rating (Cyperus iria; Rate 0.2500 kg/ha),MOOVA herbicidal effect rating ([3]; Rate 0.0320 kg/ha),MOOVA herbicidal effect rating ([3]; Rate 0.0620 kg/ha),MOOVA herbicidal effect rating ([3]; Rate 0.1250 kg/ha),MOOVA herbicidal effect rating ([3]; Rate 0.2500 kg/ha),"SAGPY herbicidal effect rating (Sagittaria pygmaea, L.; Rate 0.0320 kg/ha)","SAGPY herbicidal effect rating (Sagittaria pygmaea, L.; Rate 0.0620 kg/ha)","SAGPY herbicidal effect rating (Sagittaria pygmaea, L.; Rate 0.1250 kg/ha)","SAGPY herbicidal effect rating (Sagittaria pygmaea, L.; Rate 0.2500 kg/ha)",other results
"Cc1ccc(OCC(=O)OC2CCCC2)c(-c2nsc3ccc(-n4c(=O)cc(C(F)(F)F)n(C)c4=O)cc23)c1 [Example 84, Cyclopentyl {{2-{5-[3,6-dihydro-3-methyl-2,6-dioxo-4-(trifluoromethyl)-1(2H)-pyrimidinyl]-1,2-benzisothiazol-3-yl}-p-tolyl}oxy}acetate]",–,–,–,–,–,–,–,–,–,–,–,–,–,–,–,–,–,–,–,–,"herbicidal effect rating, ORYSAT (rice tolerance) ([1]; 0.0313 kg/ha): 3.0; herbicidal effect rating, ORYSAT (rice tolerance) ([1]; 0.0625 kg/ha): 3.0; herbicidal effect rating, ORYSAT (rice tolerance) ([1]; 0.1250 kg/ha): 4.0; herbicidal effect rating, ORYSAT (rice tolerance) ([1]; 0.2500 kg/ha): 7.0; herbicidal effect rating, ECHORC ([2]; 0.0313 kg/ha): 9.0; herbicidal effect rating, ECHORC ([2]; 0.0625 kg/ha): 9.0; herbicidal effect rating, ECHORC ([2]; 0.1250 kg/ha): 9.0; herbicidal effect rating, ECHORC ([2]; 0.2500 kg/ha): 9.0"
"Cc1ccc(OCC(=O)OC(C)C(C)(C)C)c(-c2nsc3ccc(-n4c(=O)cc(C(F)(F)F)n(C)c4=O)cc23)c1 (stereo not shown) [Example 85, 1,2,2-Trimethylpropyl {{2-{5-[3,6-dihydro-3-methyl-2,6-dioxo-4-(trifluoromethyl)-1(2H)-pyrimidinyl]-1,2-benzisothiazol-3-yl}-p-tolyl}oxy}acetate]",–,–,–,–,–,–,–,–,–,–,–,–,–,–,–,–,–,–,–,–,"herbicidal effect rating, ORYSAT (rice tolerance) ([1]; 0.0313 kg/ha): 0.0; herbicidal effect rating, ORYSAT (rice tolerance) ([1]; 0.0625 kg/ha): 0.0; herbicidal effect rating, ORYSAT (rice tolerance) ([1]; 0.1250 kg/ha): 0.0; herbicidal effect rating, ORYSAT (rice tolerance) ([1]; 0.2500 kg/ha): 1.0; herbicidal effect rating, ECHORC ([2]; 0.0313 kg/ha): 8.0; herbicidal effect rating, ECHORC ([2]; 0.0625 kg/ha): 9.0; herbicidal effect rating, ECHORC ([2]; 0.1250 kg/ha): 9.0; herbicidal effect rating, ECHORC ([2]; 0.2500 kg/ha): 9.0"
"Cn1c(C(F)(F)F)cc(=O)n(-c2ccc3snc(CP(=O)(O)O)c3c2)c1=O [Example 92, {{5-[3,6-Dihydro-3-methyl-2,6-dioxo-4-(trifluoromethyl)-1(2H)-pyrimidinyl]-1,2-benzisothiazol-3-yl}methyl}phosphonic acid]",–,–,–,–,–,–,–,–,–,–,–,–,–,–,–,–,–,–,–,–,"herbicidal effect rating, ORYSAT (rice tolerance) ([1]; 0.0313 kg/ha): 3.0; herbicidal effect rating, ORYSAT (rice tolerance) ([1]; 0.0625 kg/ha): 5.0; herbicidal effect rating, ORYSAT (rice tolerance) ([1]; 0.1250 kg/ha): 6.0; herbicidal effect rating, ORYSAT (rice tolerance) ([1]; 0.2500 kg/ha): 6.0; herbicidal effect rating, ECHORC ([2]; 0.0313 kg/ha): 4.0; herbicidal effect rating, ECHORC ([2]; 0.0625 kg/ha): 6.0; herbicidal effect rating, ECHORC ([2]; 0.1250 kg/ha): 9.0; herbicidal effect rating, ECHORC ([2]; 0.2500 kg/ha): 9.0"
"Cn1c(C(F)(F)F)cc(=O)n(-c2ccc3snc(/C=C/C=O)c3c2)c1=O [Example 291, 1,2-Benzisothiazole-3-acrylaldehyde, 5-[3,6-dihydro-3-methyl-2,6-dioxo-4-(trifluoromethyl)-1(2H)-pyrimidinyl]-, (E)-]",0.0,0.0,0.0,0.0,0.0,0.0,0.0,0.0,0.0,0.0,9.0,9.0,0.0,9.0,9.0,9.0,0.0,0.0,0.0,0.0,–
"COC(=O)COCc1nsc2ccc(-n3c(=O)cc(C(F)(F)F)n(C)c3=O)cc12 [Example 292, Acetic acid, {{5-[3,6-dihydro-3-methyl-2,6-dioxo-4-(trifluoromethyl)-1(2H)-pyrimidinyl]-1,2-benzisothiazol-3-yl}methoxy}-, methyl ester]",0.0,0.0,0.0,0.0,0.0,0.0,0.0,0.0,9.0,9.0,9.0,9.0,9.0,9.0,9.0,9.0,0.0,0.0,0.0,5.0,–
"Cn1c(C(F)(F)F)cc(=O)n(-c2ccc3snc(COCC(=O)O)c3c2)c1=O [Example 293, Acetic acid, {{5-[3,6-dihydro-3-methyl-2,6-dioxo-4-(trifluoromethyl)-1(2H)-pyrimidinyl]-1,2-benzisothiazol-3-yl}methoxy}-]",0.0,0.0,0.0,0.0,0.0,0.0,0.0,0.0,9.0,9.0,9.0,9.0,9.0,9.0,9.0,9.0,0.0,0.0,0.0,6.0,–
"Cn1c(C(F)(F)F)cc(=O)n(-c2ccc3snc(COCC(=O)NS(C)(=O)=O)c3c2)c1=O [Example 294, Acetamide, 2-{{5-[3,6-dihydro-3-methyl-2,6-dioxo-4-(trifluoromethyl)-1(2H)-pyrimidinyl]-1,2-benzisothiazol-3-yl}methoxy}-N-(methylsulfonyl)-]",0.0,0.0,0.0,0.0,0.0,0.0,0.0,0.0,0.0,0.0,3.0,9.0,9.0,9.0,9.0,9.0,0.0,0.0,0.0,0.0,–
"CNC.Cn1c(C(F)(F)F)cc(=O)n(-c2ccc3snc(COCC(=O)NS(C)(=O)=O)c3c2)c1=O [Example 295, Acetamide, 2-{{5-[3,6-dihydro-3-methyl-2,6-dioxo-4-(trifluoromethyl)-1(2H)-pyrimidinyl]-1,2-benzisothiazol-3-yl}methoxy}-N-(methylsulfonyl)-, dimethylamine salt]",–,0.0,0.0,0.0,–,0.0,0.0,0.0,–,0.0,9.0,9.0,–,0.0,9.0,9.0,–,0.0,0.0,6.0,–
"CNC.Cn1c(C(F)(F)F)cc(=O)n(-c2ccc3snc(COCC(=O)O)c3c2)c1=O [Example 296, Acetic acid, {{5-[3,6-dihydro-3-methyl-2,6-dioxo-4-(trifluoromethyl)-1(2H)-pyrimidinyl]-1,2-benzisothiazol-3-yl}methoxy}-, dimethylamine salt]",0.0,0.0,0.0,2.0,0.0,0.0,2.0,4.0,6.0,7.0,7.0,7.0,9.0,9.0,9.0,9.0,0.0,0.0,5.0,7.0,–
